Assays:
[1] = test system: large crabgrass; test: Test F preemergence test; assay type: in vivo, Digitaria sanguinalis; conditions: scale 0 to 100
Text: (§1) Seeds of plant species selected from bermudagrass (Cynodon dactylon), Surinam grass (Brachiaria decumbens), large crabgrass (Digitaria sanguinalis), green foxtail (Setaria viridis), goosegrass (Eleusine indica), johnsongrass (Sorghum halepense), kochia (Kochia scoparia), pitted morningglory (Ipomoea lacunosa), purple nutsedge (Cyperus rotundus), common ragweed (Ambrosia elation), mustard (Brassica nigra), guineagrass (Panicum maximum), […] (Paspalum dilatatum), barnyardgrass (Echinochloa crus-galli), southern sandbur (Cenchrus echinatus), common sowthistle (Sonchus oleraceous), prickly […] spinosa), Italian ryegrass (Lolium multiflorum), common purslane (Portulaca oleracea), broadleaf signalgrass (Brachiaria platyphylla), common groundsel (Senecio vulgaris), common chickweed (Stellaria media), Virginia dayflower (Commelina virginica), annual bluegrass (Poa annua), naked crabgrass (Digitaria nuda), […] cochinchinensis), quackgrass (Elytrigia repens), Canada horseweed (Conyza canadensis), field bindweed (Convolvulus arvensis), […] (Bidens bipinnata), common mallow (Malva sylvestris), Russian thistle (Salsola kali), and sugarcane (Saccharum officinarum) were planted and treated preemergence with test chemicals formulated in a non-phytotoxic solvent mixture which included a surfactant. At a different time, sugarcane was treated with postemergence applications of some of the test chemicals formulated in the same manner. Plants were approximately 3- to 4-leaf stage for the postemergence treatments. Treated plants and controls were maintained in a greenhouse for 14 to 21 days, after which time all species were compared to controls and visually evaluated. […] A dash (-) response means no test result.

[2] = test system: Surinam grass; test: Test F preemergence test; assay type: in vivo, Brachiaria decumbens; conditions: scale 0 to 100; for Surinam Grass plant response rating: 125 g ai/ha
Text: as §1

[3] = test system: downy brome; test: Test C pre-/postemergence test; assay type: in vivo, Bromus tectorum; conditions: for Plant response rating, Bromegrass, Downy: 31 g ai/ha, scale 0 to 100 (0 no effect, 100 complete control)
Text: Seeds of plant species selected from blackgrass (Alopecurus myosuroides), downy brome (Bromus tectorum), green foxtail (Setaria viridis), Italian ryegrass (Lolium multiflorum), wheat (Triticum aestivum), wild oat (Avena fatua), catchweed bedstraw (Galium aparine), Russian thistle (Salsola kali), […] (Cynodon dactylon), Surinam grass (Brachiaria decumbens), cocklebur (Xanthium strumarium), corn (Zea mays), crabgrass (Digitaria sanguinalis), woolly cupgrass (Eriochloa villosa), giant foxtail (Setaria faberii), Goosegrass (Eleusin indica), johnsongrass (Sorghum halepense), kochia (Kochia scoparia), lambsquarters (Chenopodium album), morningglory (Ipomoea coccinea), eastern black nightshade (Solanum ptycanthum), yellow nutsedge (Cyperus esculentus), pigweed (Amaranthus retroflexus), common ragweed (Ambrosia elation), soybean (Glycine max), common (oilseed) sunflower (Helianthus annuus), and velvetleaf (Abutilon theophrasti) were planted and treated preemergence with test chemicals formulated in a non-phytotoxic solvent mixture which included a surfactant. At the same time, plants selected from these crop and weed species and also winter barley (Hordeum vulgare), canarygrass (Phalaris minor), and chickweed (Stellaria media) were treated with postemergence applications of some of the test chemicals formulated in the same manner. Plants ranged in height from 2 to 18 cm (1- to 4-leaf stage) for postemergence treatments. […] At time of treatment, test pots were flooded to 3 cm above the soil surface, treated by application of test compounds directly to the paddy water, and then maintained at that water depth for the duration of the test. […] A dash (-) response means no test result.

[4] = test system: crabgrass; test: Test A pre-/postemergence greenhouse test; assay type: in vivo, Digitaria sanguinalis; conditions: for Plant response rating, Crabgrass, Large: 0 to 100 scale where 0 is no effect and 100 is complete control; for Crabgrass, Large plant response rating: 0 to 100 scale
Summary of the method: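 Planting was into mixed loam soil and sand; preemergence treatment followed as a directed soil spray. Concurrently, emerged plants (one- to two-leaf, 2–10 cm) received postemergence applications of identically formulated compound (non-phytotoxic solvent, surfactant). After approximately ten days under greenhouse conditions, injury was judged by eye against untreated plants.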

[5] = test system: common ragweed; test: Test F preemergence test; assay type: in vivo, Ambrosia elation; conditions: scale 0 to 100; for Ragweed plant response rating: 125 g ai/ha
Text: as §1

[6] = test system: green foxtail; test: Test F preemergence test; assay type: in vivo, Setaria viridis; conditions: scale 0 to 100
Text: as §1

[7] = test system: field bindweed; test: Test F preemergence test; assay type: in vivo, Convolvulus arvensis; conditions: scale 0 to 100
Text: as §1

[8] = test system: johnsongrass; test: Test F preemergence test; assay type: in vivo, Sorghum halepense; conditions: scale 0 to 100
Text: as §1

[9] = test system: Italian ryegrass; test: Test F preemergence test; assay type: in vivo, Lolium multiflorum; conditions: scale 0 to 100; for Ryegrass, Italian plant response rating: 125 g ai/ha
Text: as §1

[10] = test system: itchgrass; test: Test F preemergence test; assay type: in vivo, Rottboellia cochinchinensis; conditions: scale 0 to 100
Text: as §1

[11] = test system: goosegrass; test: Test F preemergence test; assay type: in vivo, Eleusine indica; conditions: scale 0 to 100
Text: as §1

[12] = test system: southern sandbur; test: Test F preemergence test; assay type: in vivo, Cenchrus echinatus; conditions: scale 0 to 100; for Sandbur plant response rating: 125 g ai/ha
Text: as §1

[13] = 62 g ai/ha, Preemergence, scale 0 to 100
[14] = 125 g ai/ha, preemergence, scale 0 (no effect) to 100 (complete control)
[15] = preemergence, 250 g ai/ha, scale 0 (no effect) to 100 (complete control)
[16] = Postemergence, 500 g ai/ha, 0 is no effect, 100 is complete control
[17] = Preemergence, 125 g ai/ha, 0 no effect, 100 complete control

CCn1nc(C(F)(F)F)c(CS(=O)(=O)c2cccc[n+]2[O-])c1OCC(F)(F)F [Compound 63]
Plant response rating, Crabgrass, Large ([1]; 16 g ai/ha, preemergence): 25
Crabgrass, Large plant response rating ([1]; 62 g ai/ha, Preemergence): 95
Crabgrass, Large plant response rating ([1]; 125 g ai/ha, preemergence): 100
Plant response rating, Crabgrass, Large ([1]; Preemergence, 31 g ai/ha): 90
Plant response rating, Surinam Grass ([2]; 16 g ai/ha, preemergence): 70
Surinam Grass plant response rating ([2]; preemergence): 100
Plant response rating, Surinam Grass ([2]; Preemergence, 62 g ai/ha): 100
Plant response rating, Surinam Grass ([2]; Preemergence, 31 g ai/ha): 80
Bromegrass, Downy plant response rating [3, 13]: 70
Bromegrass, Downy plant response rating [3, 14]: 98
Plant response rating, Bromegrass, Downy ([3]; Preemergence): 40
Bromegrass, Downy plant response rating [3, 15]: 100
Plant response rating, Crabgrass, Large ([4]; Postemergence, 125 g ai/ha): 60
Crabgrass, Large plant response rating [4, 16]: 90
Crabgrass, Large plant response rating [4, 17]: 80
Plant response rating, Crabgrass, Large ([4]; Preemergence, 500 g ai/ha): 100
Plant response rating, Ragweed ([5]; 16 g ai/ha, preemergence): 0
Ragweed plant response rating ([5]; preemergence): 100
Plant response rating, Ragweed ([5]; Preemergence, 62 g ai/ha): 90
Plant response rating, Ragweed ([5]; Preemergence, 31 g ai/ha): 40
Plant response rating, Foxtail, Green ([6]; 16 g ai/ha, preemergence): 65
Foxtail, Green plant response rating ([6]; 62 g ai/ha, Preemergence): 90
Foxtail, Green plant response rating ([6]; 125 g ai/ha, preemergence): 100
Plant response rating, Foxtail, Green ([6]; Preemergence, 31 g ai/ha): 80
Plant response rating, Field Bindweed ([7]; 16 g ai/ha, preemergence): 0
Field Bindweed plant response rating ([7]; 62 g ai/ha, Preemergence): 0
Field Bindweed plant response rating ([7]; 125 g ai/ha, preemergence): 0
Plant response rating, Field Bindweed ([7]; Preemergence, 31 g ai/ha): 0
Plant response rating, Johnsongrass ([8]; 16 g ai/ha, preemergence): 35
Johnsongrass plant response rating ([8]; 62 g ai/ha, Preemergence): 100
Johnsongrass plant response rating ([8]; 125 g ai/ha, preemergence): 100
Plant response rating, Johnsongrass ([8]; Preemergence, 31 g ai/ha): 80
Plant response rating, Ryegrass, Italian ([9]; 16 g ai/ha, preemergence): 0
Ryegrass, Italian plant response rating ([9]; preemergence): 100
Plant response rating, Ryegrass, Italian ([9]; Preemergence, 62 g ai/ha): 80
Plant response rating, Ryegrass, Italian ([9]; Preemergence, 31 g ai/ha): 60
Plant response rating, Itchgrass ([10]; 16 g ai/ha, preemergence): 10
Itchgrass plant response rating ([10]; 62 g ai/ha, Preemergence): 80
Itchgrass plant response rating ([10]; 125 g ai/ha, preemergence): 90
Plant response rating, Itchgrass ([10]; Preemergence, 31 g ai/ha): 50
Plant response rating, Goosegrass ([11]; 16 g ai/ha, preemergence): 80
Goosegrass plant response rating ([11]; 62 g ai/ha, Preemergence): 98
Goosegrass plant response rating ([11]; 125 g ai/ha, preemergence): 100
Plant response rating, Goosegrass ([11]; Preemergence, 31 g ai/ha): 90
Plant response rating, Sandbur ([12]; 16 g ai/ha, preemergence): 65
Sandbur plant response rating ([12]; preemergence): 100
Plant response rating, Sandbur ([12]; Preemergence, 62 g ai/ha): 100
Plant response rating, Sandbur ([12]; Preemergence, 31 g ai/ha): 100

CCn1nc(C(F)(F)F)c(C[S+]([O-])c2cc(C)cc[n+]2[O-])c1OCC(F)(F)F (racemic) [Compound 66]
Plant response rating, Crabgrass, Large ([1]; 16 g ai/ha, preemergence): 0
Crabgrass, Large plant response rating ([1]; 62 g ai/ha, Preemergence): 80
Crabgrass, Large plant response rating ([1]; 125 g ai/ha, preemergence): 95
Plant response rating, Crabgrass, Large ([1]; Preemergence, 31 g ai/ha): 70
Plant response rating, Surinam Grass ([2]; 16 g ai/ha, preemergence): 0
Surinam Grass plant response rating ([2]; preemergence): 100
Plant response rating, Surinam Grass ([2]; Preemergence, 62 g ai/ha): 98
Plant response rating, Surinam Grass ([2]; Preemergence, 31 g ai/ha): 90
Bromegrass, Downy plant response rating [3, 13]: 90
Bromegrass, Downy plant response rating [3, 14]: 100
Plant response rating, Bromegrass, Downy ([3]; Preemergence): 70
Bromegrass, Downy plant response rating [3, 15]: 100
Plant response rating, Crabgrass, Large ([4]; Postemergence, 125 g ai/ha): 50
Crabgrass, Large plant response rating [4, 16]: 90
Crabgrass, Large plant response rating [4, 17]: 80
Plant response rating, Crabgrass, Large ([4]; Preemergence, 500 g ai/ha): 100
Plant response rating, Ragweed ([5]; 16 g ai/ha, preemergence): 0
Ragweed plant response rating ([5]; preemergence): 80
Plant response rating, Ragweed ([5]; Preemergence, 62 g ai/ha): 70
Plant response rating, Ragweed ([5]; Preemergence, 31 g ai/ha): 70
Plant response rating, Foxtail, Green ([6]; 16 g ai/ha, preemergence): 10
Foxtail, Green plant response rating ([6]; 62 g ai/ha, Preemergence): 90
Foxtail, Green plant response rating ([6]; 125 g ai/ha, preemergence): 100
Plant response rating, Foxtail, Green ([6]; Preemergence, 31 g ai/ha): 60
Plant response rating, Field Bindweed ([7]; 16 g ai/ha, preemergence): 30
Field Bindweed plant response rating ([7]; 62 g ai/ha, Preemergence): 40
Field Bindweed plant response rating ([7]; 125 g ai/ha, preemergence): 75
Plant response rating, Field Bindweed ([7]; Preemergence, 31 g ai/ha): 40
Plant response rating, Johnsongrass ([8]; 16 g ai/ha, preemergence): 35
Johnsongrass plant response rating ([8]; 62 g ai/ha, Preemergence): 90
Johnsongrass plant response rating ([8]; 125 g ai/ha, preemergence): 100
Plant response rating, Johnsongrass ([8]; Preemergence, 31 g ai/ha): 65
Plant response rating, Ryegrass, Italian ([9]; 16 g ai/ha, preemergence): 0
Ryegrass, Italian plant response rating ([9]; preemergence): 70
Plant response rating, Ryegrass, Italian ([9]; Preemergence, 62 g ai/ha): 60
Plant response rating, Ryegrass, Italian ([9]; Preemergence, 31 g ai/ha): 50
Plant response rating, Itchgrass ([10]; 16 g ai/ha, preemergence): 0
Itchgrass plant response rating ([10]; 62 g ai/ha, Preemergence): 70
Itchgrass plant response rating ([10]; 125 g ai/ha, preemergence): 90
Plant response rating, Itchgrass ([10]; Preemergence, 31 g ai/ha): 50
Plant response rating, Goosegrass ([11]; 16 g ai/ha, preemergence): 40
Goosegrass plant response rating ([11]; 62 g ai/ha, Preemergence): 75
Goosegrass plant response rating ([11]; 125 g ai/ha, preemergence): 100
Plant response rating, Goosegrass ([11]; Preemergence, 31 g ai/ha): 60
Plant response rating, Sandbur ([12]; 16 g ai/ha, preemergence): 15
Sandbur plant response rating ([12]; preemergence): 100
Plant response rating, Sandbur ([12]; Preemergence, 62 g ai/ha): 100
Plant response rating, Sandbur ([12]; Preemergence, 31 g ai/ha): 70

From patent US20100298141A1, “SUBSTITUTED PYRIDINE N-OXIDE HERBICIDES” (E. I. DU PONT DE NEMOURS AND COMPANY, priority 2007, published 2010)
